Laboratory results: article PMC9023544, “Ketone-selenoesters as potential anticancer and multidrug resistance modulation agents in 2D and 3D ovarian and breast cancer in vitro models” (Scientific Reports, 2022)
Read-outs that look alike come from different tables or passages of the source.

Legend:
[1] = system: prostate metastatic cancer line; parameters: method as in PMID 21549092; details: cited from earlier work
[2] = system: HOC; assay: Oxidation stress (ROS), Muse Oxidative Stress Kit; format: cell-based, human; details: 1 µM (DMSO 5% V/V), 24 h
Experimental: Selenoesters (K3, K4, K7) were tested for their ability to generate reactive oxygen species (ROS). HOC was exposed to selenoesters in concentration of 1 µM for 24 h. DMSO (5% V/V) was used as a positive control. The required volume of DMSO (1% V/V) was added to untreated cells. ROS are essential biomolecules in cellular regulation as a part of the defence mechanisms. On the other hand, their participation in cell signalling may affect apoptosis and other death pathways. In the assay, dihydroethidium (DHE) reacts with superoxide anions by forming DNA-binding fluorophore ethidium bromide. Based on fluorescence, the cell population can be distinguished into ROS negative and ROS positive cells containing oxygen radicals.
To determine the oxidation stress potential of selected selenoesters, HOC were seeded into 24-well plates at a density 2 × 10^5 cells/mL for 24 h according to the above mentioned procedure. Afterwards, the plates were washed 1 ×with PBS and fresh DMEM medium containing compounds K3, K4, K7 (final concentration—1 µM) was added for 24 h, except for the positive and negative control. […] as the oxidation stress inductor. After incubation, the cells were washed 1× with PBS and released from the surface by using a trypsin–EDTA solution. After trypsin inhibition by medium addition, the cell suspensions were centrifuged (100×g, 5 min, 25 °C), supernatants were removed, and cell pellets resuspended in 1× assay buffer. All reagents were prepared immediately before use. Afterwards, 10 µL of the cell suspension were mixed with 190 µL of working solution (Muse Oxidative stress reagent) and stained for 30 min at 37 °C. Subsequently, the […] were analysed by Guava Muse Cell Analyzer. Oxidation stress detection was performed following the instructions provided by the manufacturer.

[3] = system: HOC/ADR; assay: Sensitization of MDR cell line to Adriamycin; format: cell-based, human; details: IC50 of Adriamycin / IC50 of Adriamycin with IC10 dose of compound
Experimental: To determine the sensitization potential of compounds, HOC/ADR and MCF-7/PAX were used. Based on the cytotoxic potential of the compounds against several cancer and non-cancerous cell lines (Table 1), the concentrations of applied compounds were adjusted. IC10 values was considered as the concentrations, which should not decrease the cell viability under 90%. After the addition of compounds, Adriamycin (concentration range 0.1–20 µM) and paclitaxel (concentration range 0.1–10 µM) were added to HOC/ADR and MCF-7/PAX, respectively. The sensitization potential of the compounds was determined as the ratio of the IC50 of cytostatic agent (Adriamycin/paclitaxel) to the IC50 of cytostatic agent affected by the compound in concentration corresponding to the IC10 value. Fold change greater than 1 indicated synergic effect of cytostatic agent and the tested compound.
After that, the plates were washed 1× with PBS and fresh DMEM medium supplemented with tested compounds at final concentration corresponding their IC10 value was added, except for positive control wells. Subsequently, Adriamycin (concentration range 0.1–20 µM) or paclitaxel (concentration range 0.1–10 µM) was added to the appropriate cell line for 72 h. After incubation, the cells were washed 1× with PBS and the resazurin solution (0.03 mg/mL) was added to evaluate the cell viability as described above. IC50 values of cytostatics were calculated for both the control and compounds; a fold change was counted up. When this fold change is higher than 1 indicates a synergism between the tested cytostatic agent and the compound, while a fold change lower than 1 means an antagonism. Fold change=IC50value of cytostatic treated cells only/IC50value of cytostatic treated cells in addition of the compound

[4] = system: MCF-7 (human breast adenocarcinoma); assay: Cytotoxic activity, 2D, resazurin, 72 h; format: cell-based; details: for IC50: Homo sapiens, MCF7, 2D, 72 h, mean ± SEM, n=3, read-out: MCF-7 IC50; for SI HEK293/MCF-7: IC50 HEK293 / IC50 MCF-7
Experimental: (§1) The cytotoxic potential of selenoesters was tested on several cancer cell lines—HOC (human parental ovarian adenocarcinoma, HOC, A2780, Sigma-Aldrich), HOC/ADR (sub-line resistant to Adriamycin, A2780/ADR, Sigma-Aldrich), MCF-7 (human breast adenocarcinoma, ATCC®, HTB-22TM), MCF-7/PAX (resistant sub-line established by gradual adaptation of parental cells to increased concentration of paclitaxel; kindly provided by Division of Cell and Molecular Biology, Third Faculty of Medicine, Charles University, Czech Republic) and on one non-cancerous cell line—HEK293 (human embryonic kidney cell line, Leibniz Institute, DSMZ-German Collection of Microorganisms and Cell Cultures GmbH). All mentioned cell lines were authenticated using short tandem repeat (STR) profiling. Cell lines were cultivated in DMEM medium (10% FBS, 1× antibiotic antimycotic solution), except for HEK293 cell line which was cultivated without antibiotics. In case of the resistant cell lines, the medium was supplemented with a required concentration of cytostatics to maintain resistance (HOC/ADR—100 nM Adriamycin; MCF-7/PAX—300 nM paclitaxel). All cells were cultivated in a CO2 incubator (5% CO2, 37 °C, Thermo Fisher Scientific).
(§2) For the experiment, the cells at passage number 5–20 were seeded at a 1 × 10^5 cells/mL concentration into 96-well plates to 100 µL final volume. The final concentration range of the compounds was 0.63–20 µM. After an incubation of 72 h, the plates were washed 1× with PBS and resazurin solution (0.03 mg/mL in 1× PBS) was added. After 1 h of incubation, the fluorescence signal was recorded (ex./em. 560/590 nm).
(§3) The selectivity index (SI) was determined as the ratio of IC50 value for the non-cancerous cells to IC50 for the cancer cell line. For resistant cell lines, the collateral sensitivity (CS) was calculated as the ratio of IC50 value in sensitive tumour cells to IC50 in the resistant cancer cell line. In both cases, the selectivity is considered as: (1) strongly selective when SI or CS value is above 6, (2) moderately selective when SI or CS is between 3 and 6, (3) slightly selective when SI or CS is between 1 and 3 and (4) non-selective when SI or CS is less than 1[23].

[5] = system: HOC (human parental ovarian adenocarcinoma, A2780); assay: Cytotoxic activity, 2D, resazurin, 72 h; format: cell-based; details: for IC50: 2D, 72 h, mean ± SEM, n=3, read-out: HOC IC50; for SI HEK293/HOC: IC50 HEK293 / IC50 HOC
Experimental: as §1, §2, §3

[6] = system: MCF-7/PAX (paclitaxel-resistant sub-line); assay: Cytotoxic activity, 2D, resazurin, 72 h; format: cell-based, human; details: for IC50: Homo sapiens, MCF7, 2D, 72 h, mean ± SEM, n=3, read-out: MCF-7/PAX IC50; for SI HEK293/MC7-7/PAX: IC50 HEK293 / IC50 MCF-7/PAX; for CS (collateral sensitivity index): IC50 MCF-7 / IC50 MCF-7/PAX
Experimental: as §1, §2, §3

[7] = system: HOC/ADR (sub-line resistant to Adriamycin, A2780/ADR); assay: Cytotoxic activity, 2D, resazurin, 72 h; format: cell-based, human; details: for IC10 / IC50: Homo sapiens, A2780 ADR, 72 h; for IC10: HOC/ADR, concentration that should not decrease viability under 90%, read-out: IC10 of compounds; for IC50: 2D, mean ± SEM, n=3, read-out: HOC/ADR IC50; for SI HEK293/HOC/ADR: IC50 HEK293 / IC50 HOC/ADR; for CS (collateral sensitivity index): IC50 HOC / IC50 HOC/ADR
Experimental: as §1, §2, §3

[8] = system: HEK293 (human embryonic kidney cell line); assay: Cytotoxic activity, non-cancerous cell line, resazurin, 72 h; format: cell-based; details: Homo sapiens, HEK293; 72 h, mean ± SEM, n=3
Experimental: as §1, §2, §3

O=[Se]([O-])[O-].[Na+].[Na+] [sodium selenite]
growth inhibition [1]: 24%

C[S+](C)[O-] [DMSO (5% V/V), dimethyl sulfoxide, reference compound]
ROS(+) cells [2]: 68.7 ± 1.9 % | ROS(−) cells [2]: 31.8 ± 2.3 %

N#CC[Se]C(=O)c1cccc(F)c1 [N2]
Fold change [3]: (1.2 ± 0.1)× | IC50 [4]: 2600 ± 100 nM | SI HEK293/MCF-7 [4]: 3.0 ± 0.2 | IC50 ([5]; Homo sapiens, A2780, 72 h): 7100 ± 200 nM | SI HEK293/HOC [5]: 1.1 ± 0.1 | IC50 [6]: 2500 ± 300 nM | SI HEK293/MC7-7/PAX [6]: 3.1 ± 0.2 | CS (collateral sensitivity index) [6]: 1.0 ± 0.1 | collateral sensitivity against HOC/ADR (in words) [7]: slight collateral sensitivity | IC10 [7]: 3000 nM | IC50 [7]: 4700 ± 100 nM | SI HEK293/HOC/ADR [7]: 1.7 ± 0.1 | CS (collateral sensitivity index) [7]: 1.5 ± 0.1 | IC50 [8]: 7800 ± 200 nM

CC(=O)O[C@@]12CO[C@@H]1C[C@H](O)[C@@]1(C)C(=O)[C@H](O)C3=C(C)[C@@H](OC(=O)[C@H](O)[C@@H](NC(=O)OC(C)(C)C)c4ccccc4)C[C@@](O)([C@@H](OC(=O)c4ccccc4)[C@H]21)C3(C)C [docetaxel]
growth inhibition [1]: 22%

CC(=O)C[Se]C(=O)c1ccc(F)c(Cl)c1 [K6]
Fold change [3]: (1.1 ± 0.1)× | IC50 [4]: 2100 ± 200 nM | SI HEK293/MCF-7 [4]: 0.9 ± 0.2 | IC50 [5]: 700 ± 100 nM | IC50 ([5]; Homo sapiens, A2780, 72 h): < 1000 nM | SI HEK293/HOC [5]: 2.7 ± 0.4 | IC50 [6]: 2300 ± 300 nM | SI HEK293/MC7-7/PAX [6]: 0.9 ± 0.1 | CS (collateral sensitivity index) [6]: 0.9 ± 0.1 | IC10 [7]: 1300 nM | IC50 [7]: 2600 ± 100 nM | SI HEK293/HOC/ADR [7]: 0.8 ± 0.1 | CS (collateral sensitivity index) [7]: 0.3 ± 0.0 | IC50 [8]: 2000 ± 100 nM

CC(=O)C[Se]C(=O)c1cccs1 [K1]
Fold change [3]: (1.3 ± 0.1)× | IC50 [4]: 1600 ± 100 nM | SI HEK293/MCF-7 [4]: 0.6 ± 0.1 | IC50 [5]: 800 nM | IC50 ([5]; Homo sapiens, A2780, 72 h): < 1000 nM | SI HEK293/HOC [5]: 1.2 ± 0.1 | IC50 [6]: 2200 ± 200 nM | SI HEK293/MC7-7/PAX [6]: 0.4 ± 0.0 | CS (collateral sensitivity index) [6]: 0.7 ± 0.1 | IC10 [7]: 1500 nM | IC50 [7]: 2300 nM | SI HEK293/HOC/ADR [7]: 0.4 ± 0.0 | CS (collateral sensitivity index) [7]: 0.4 ± 0.0 | IC50 [8]: 1000 ± 100 nM

N#CC[Se]C(=O)c1ccc(Br)cc1 [N3]
Fold change [3]: (1.3 ± 0.0)× | IC50 [4]: 2300 ± 500 nM | SI HEK293/MCF-7 [4]: 3.5 ± 0.9 | IC50 ([5]; Homo sapiens, A2780, 72 h): 6500 ± 300 nM | SI HEK293/HOC [5]: 1.2 ± 0.1 | IC50 [6]: 2700 ± 200 nM | SI HEK293/MC7-7/PAX [6]: 3.0 ± 0.6 | CS (collateral sensitivity index) [6]: 0.9 ± 0.3 | collateral sensitivity against HOC/ADR (in words) [7]: slight collateral sensitivity | IC10 [7]: 3100 nM | IC50 [7]: 5200 ± 100 nM | SI HEK293/HOC/ADR [7]: 1.5 ± 0.1 | CS (collateral sensitivity index) [7]: 1.3 ± 0.1 | IC50 [8]: 8000 ± 300 nM

N#CC[Se]C(=O)c1cccc(C(F)(F)F)c1 [N5]
Fold change [3]: (1.2 ± 0.2)× | IC50 [4]: 2500 ± 200 nM | SI HEK293/MCF-7 [4]: 2.4 ± 0.3 | IC50 ([5]; Homo sapiens, A2780, 72 h): 2300 ± 100 nM | SI HEK293/HOC [5]: 2.7 ± 0.2 | IC50 [6]: 2700 ± 200 nM | SI HEK293/MC7-7/PAX [6]: 2.3 ± 0.2 | CS (collateral sensitivity index) [6]: 0.9 ± 0.2 | IC10 [7]: 2500 nM | IC50 [7]: 4500 ± 200 nM | SI HEK293/HOC/ADR [7]: 1.3 ± 0.1 | CS (collateral sensitivity index) [7]: 0.5 ± 0.1 | IC50 [8]: 6000 ± 200 nM

CC(=O)C[Se]C(=O)c1cc(F)c(F)cc1F [K8]
Fold change [3]: (1.1 ± 0.1)× | IC50 [4]: 2600 ± 400 nM | SI HEK293/MCF-7 [4]: 0.8 ± 0.1 | IC50 ([5]; Homo sapiens, A2780, 72 h): 2100 ± 100 nM | SI HEK293/HOC [5]: 0.9 ± 0.1 | collateral sensitivity against paclitaxel-resistant breast carcinoma (in words) [6]: slight collateral sensitivity | IC50 [6]: 2000 ± 100 nM | SI HEK293/MC7-7/PAX [6]: 1.0 ± 0.2 | CS (collateral sensitivity index) [6]: 1.3 ± 0.3 | IC10 [7]: 3000 nM | IC50 [7]: 2700 nM | SI HEK293/HOC/ADR [7]: 0.7 ± 0.0 | CS (collateral sensitivity index) [7]: 0.8 ± 0.1 | IC50 [8]: 2000 ± 200 nM
